Laboratory results as given in patent US10709758B2 (priority 2015, dated 2020).
Residues, ends and D or L forms follow the SMILES beside them.

Legend:
TcdB [1] = tested on: TcdB
TcdB1 = TcdB1 (Clostridioides difficile, UniProt P18177)
CHO-K1 cells = format: cell-based
TcdB [2] = target: TcdB (Clostridioides difficile, UniProt P18177); conditions: cited from earlier work
TcdB (Clostridioides difficile, UniProt P18177), sequence (P18177 whole entry, looked up): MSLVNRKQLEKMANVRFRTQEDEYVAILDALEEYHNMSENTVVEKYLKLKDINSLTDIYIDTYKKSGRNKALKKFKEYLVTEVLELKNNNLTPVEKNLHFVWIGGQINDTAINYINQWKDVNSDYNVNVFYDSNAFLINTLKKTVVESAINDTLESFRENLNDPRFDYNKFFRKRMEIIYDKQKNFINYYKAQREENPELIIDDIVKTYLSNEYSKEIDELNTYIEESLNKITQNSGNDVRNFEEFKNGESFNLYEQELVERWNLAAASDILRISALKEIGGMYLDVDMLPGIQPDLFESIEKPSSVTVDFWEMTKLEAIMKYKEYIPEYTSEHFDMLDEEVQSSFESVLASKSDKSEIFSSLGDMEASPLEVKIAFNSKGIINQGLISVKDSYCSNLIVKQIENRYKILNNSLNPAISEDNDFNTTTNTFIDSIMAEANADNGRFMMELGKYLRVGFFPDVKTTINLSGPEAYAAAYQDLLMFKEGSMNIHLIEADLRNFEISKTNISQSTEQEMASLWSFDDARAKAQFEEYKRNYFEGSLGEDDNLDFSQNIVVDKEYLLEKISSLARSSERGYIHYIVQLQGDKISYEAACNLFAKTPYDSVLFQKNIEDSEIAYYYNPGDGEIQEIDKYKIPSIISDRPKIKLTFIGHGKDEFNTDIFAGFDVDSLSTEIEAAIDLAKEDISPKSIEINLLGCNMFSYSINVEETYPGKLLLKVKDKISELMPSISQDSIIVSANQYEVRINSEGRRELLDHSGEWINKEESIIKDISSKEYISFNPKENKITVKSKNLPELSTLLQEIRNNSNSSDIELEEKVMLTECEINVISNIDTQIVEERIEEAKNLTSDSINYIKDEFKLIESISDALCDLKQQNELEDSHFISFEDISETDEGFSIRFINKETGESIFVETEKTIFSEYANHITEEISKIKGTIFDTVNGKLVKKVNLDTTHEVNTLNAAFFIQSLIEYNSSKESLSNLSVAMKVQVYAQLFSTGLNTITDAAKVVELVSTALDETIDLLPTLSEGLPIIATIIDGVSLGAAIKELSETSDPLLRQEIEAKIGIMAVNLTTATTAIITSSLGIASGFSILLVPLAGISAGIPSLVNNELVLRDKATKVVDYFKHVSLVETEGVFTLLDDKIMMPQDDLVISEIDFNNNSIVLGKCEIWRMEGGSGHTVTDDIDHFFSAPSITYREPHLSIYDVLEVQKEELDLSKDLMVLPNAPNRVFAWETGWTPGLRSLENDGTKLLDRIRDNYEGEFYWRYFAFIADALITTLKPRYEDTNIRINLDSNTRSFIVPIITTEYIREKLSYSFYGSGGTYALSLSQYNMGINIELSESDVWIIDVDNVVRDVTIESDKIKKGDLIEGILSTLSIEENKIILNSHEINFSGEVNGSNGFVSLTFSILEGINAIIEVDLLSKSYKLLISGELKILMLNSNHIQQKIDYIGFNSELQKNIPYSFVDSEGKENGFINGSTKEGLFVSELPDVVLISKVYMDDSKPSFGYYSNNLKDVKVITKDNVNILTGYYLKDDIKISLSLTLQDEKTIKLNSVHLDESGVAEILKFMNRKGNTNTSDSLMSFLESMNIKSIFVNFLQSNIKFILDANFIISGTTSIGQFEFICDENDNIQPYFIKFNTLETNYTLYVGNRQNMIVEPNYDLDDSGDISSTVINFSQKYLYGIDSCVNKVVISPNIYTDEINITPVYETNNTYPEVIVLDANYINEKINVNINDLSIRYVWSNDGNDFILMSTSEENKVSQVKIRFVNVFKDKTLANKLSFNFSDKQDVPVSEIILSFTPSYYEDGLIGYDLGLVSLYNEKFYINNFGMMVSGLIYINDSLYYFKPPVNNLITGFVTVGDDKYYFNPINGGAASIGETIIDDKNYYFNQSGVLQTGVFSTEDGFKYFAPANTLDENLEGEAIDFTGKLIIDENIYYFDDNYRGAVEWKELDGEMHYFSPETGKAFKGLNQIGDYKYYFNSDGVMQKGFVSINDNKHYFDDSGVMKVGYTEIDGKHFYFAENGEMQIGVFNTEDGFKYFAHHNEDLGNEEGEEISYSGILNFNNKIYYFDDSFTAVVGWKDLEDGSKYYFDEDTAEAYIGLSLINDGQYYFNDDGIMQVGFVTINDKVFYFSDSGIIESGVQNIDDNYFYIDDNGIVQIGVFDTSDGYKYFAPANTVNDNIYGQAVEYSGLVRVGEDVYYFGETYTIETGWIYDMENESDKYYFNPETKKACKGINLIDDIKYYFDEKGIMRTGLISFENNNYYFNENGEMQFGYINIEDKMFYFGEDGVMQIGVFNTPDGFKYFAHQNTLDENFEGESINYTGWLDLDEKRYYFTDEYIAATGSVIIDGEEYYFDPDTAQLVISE

TcdB1, sequence (P18177 2-2366 limits assumed): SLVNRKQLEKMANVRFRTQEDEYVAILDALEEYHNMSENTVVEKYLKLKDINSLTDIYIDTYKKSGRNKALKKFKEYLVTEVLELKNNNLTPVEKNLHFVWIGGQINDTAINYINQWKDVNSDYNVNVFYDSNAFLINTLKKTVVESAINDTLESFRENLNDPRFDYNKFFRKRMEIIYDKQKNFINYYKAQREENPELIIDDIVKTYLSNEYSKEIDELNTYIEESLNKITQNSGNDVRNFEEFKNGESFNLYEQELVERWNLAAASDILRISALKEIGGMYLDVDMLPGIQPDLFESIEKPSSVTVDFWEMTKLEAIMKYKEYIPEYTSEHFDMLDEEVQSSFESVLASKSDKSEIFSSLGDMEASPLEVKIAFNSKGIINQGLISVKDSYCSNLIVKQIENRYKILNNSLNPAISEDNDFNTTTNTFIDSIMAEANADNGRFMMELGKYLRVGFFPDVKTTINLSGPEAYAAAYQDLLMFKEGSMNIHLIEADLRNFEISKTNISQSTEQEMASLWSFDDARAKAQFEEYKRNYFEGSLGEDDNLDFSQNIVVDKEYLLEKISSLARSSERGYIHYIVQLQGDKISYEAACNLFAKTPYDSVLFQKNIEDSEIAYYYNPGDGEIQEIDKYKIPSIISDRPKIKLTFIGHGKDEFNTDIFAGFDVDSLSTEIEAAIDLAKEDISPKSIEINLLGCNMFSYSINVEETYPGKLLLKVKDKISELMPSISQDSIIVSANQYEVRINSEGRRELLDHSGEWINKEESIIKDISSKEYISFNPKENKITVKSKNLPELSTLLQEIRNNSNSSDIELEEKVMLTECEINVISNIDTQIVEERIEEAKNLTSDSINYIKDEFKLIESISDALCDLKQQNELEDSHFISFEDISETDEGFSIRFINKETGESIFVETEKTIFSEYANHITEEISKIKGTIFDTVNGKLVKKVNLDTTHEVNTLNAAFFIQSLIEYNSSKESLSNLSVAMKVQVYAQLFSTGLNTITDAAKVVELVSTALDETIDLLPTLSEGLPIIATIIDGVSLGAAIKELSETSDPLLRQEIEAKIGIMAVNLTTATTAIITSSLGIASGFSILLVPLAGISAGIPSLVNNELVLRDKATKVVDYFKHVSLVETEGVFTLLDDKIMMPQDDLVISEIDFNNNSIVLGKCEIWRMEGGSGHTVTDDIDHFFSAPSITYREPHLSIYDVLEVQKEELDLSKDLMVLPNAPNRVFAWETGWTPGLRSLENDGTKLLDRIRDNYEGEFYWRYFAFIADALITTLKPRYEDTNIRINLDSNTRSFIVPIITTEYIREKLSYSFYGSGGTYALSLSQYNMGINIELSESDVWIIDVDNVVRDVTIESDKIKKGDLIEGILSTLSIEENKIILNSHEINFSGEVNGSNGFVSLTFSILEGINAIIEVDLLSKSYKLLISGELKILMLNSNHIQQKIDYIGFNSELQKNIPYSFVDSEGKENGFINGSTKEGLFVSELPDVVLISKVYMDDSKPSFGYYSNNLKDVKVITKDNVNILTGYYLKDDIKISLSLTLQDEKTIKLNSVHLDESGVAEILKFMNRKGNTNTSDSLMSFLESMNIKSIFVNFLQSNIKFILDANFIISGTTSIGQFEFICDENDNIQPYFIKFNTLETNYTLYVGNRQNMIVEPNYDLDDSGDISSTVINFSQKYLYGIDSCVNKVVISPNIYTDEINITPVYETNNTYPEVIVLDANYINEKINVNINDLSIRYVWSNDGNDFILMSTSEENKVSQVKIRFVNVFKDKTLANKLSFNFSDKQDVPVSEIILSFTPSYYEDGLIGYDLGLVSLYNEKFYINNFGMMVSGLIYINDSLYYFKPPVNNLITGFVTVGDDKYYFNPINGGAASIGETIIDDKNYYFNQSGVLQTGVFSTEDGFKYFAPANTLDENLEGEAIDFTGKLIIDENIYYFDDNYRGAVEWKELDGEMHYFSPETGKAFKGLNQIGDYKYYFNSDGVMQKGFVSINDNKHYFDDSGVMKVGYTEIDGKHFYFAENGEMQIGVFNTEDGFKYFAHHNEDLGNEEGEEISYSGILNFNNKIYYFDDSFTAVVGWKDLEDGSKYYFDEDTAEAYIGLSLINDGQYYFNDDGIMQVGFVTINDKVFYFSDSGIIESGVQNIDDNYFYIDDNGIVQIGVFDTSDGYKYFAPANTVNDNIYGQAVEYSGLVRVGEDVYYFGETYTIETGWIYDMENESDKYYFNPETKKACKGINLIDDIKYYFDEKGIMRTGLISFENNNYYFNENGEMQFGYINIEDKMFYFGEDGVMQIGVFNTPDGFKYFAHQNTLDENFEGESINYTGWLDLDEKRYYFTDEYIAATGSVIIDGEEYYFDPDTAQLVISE

With CC(C)[C@H](NC(=O)[C@H](CCCCN)NC(=O)[C@H](CCCNC(=N)N)NC(=O)[C@H](CCCCN)NC(=O)[C@H](CCCCN)NC(=O)[C@H](CCCCN)NC(=O)[C@@H]1CCCN1C(=O)[C@H](CCC(N)=O)NC(=O)[C@H](CO)NC(=O)[C@H](Cc1c[nH]c2ccccc12)NC(=O)[C@H](CCC(=O)O)NC(=O)[C@@H](NC(=O)[C@H](Cc1c[nH]c2ccccc12)NC(=O)[C@H](Cc1c[nH]c2ccccc12)NC(=O)[C@@H](NC(=O)[C@H](CCC(=O)O)NC(=O)[C@H](Cc1c[nH]c2ccccc12)NC(=O)[C@H](Cc1c[nH]c2ccccc12)NC(=O)[C@@H](NC(=O)[C@H](CCC(=O)O)NC(=O)[C@@H](N)CCCCN)[C@@H](C)O)[C@@H](C)O)[C@@H](C)O)C(=O)O [Pep-1, reference compound] (H-KETWWETWWTEWSQPKKKRKV-OH) the “effect of known CPPs on the cytotoxicity of TcdB” value (“effect of known CPPs” for short) (TcdB [1]) was “did not appear to alter TcdB cytotoxicity”.
With CC(C)C[C@H](NC(=O)[C@H](CCCCN)NC(=O)[C@H](CC(N)=O)NC(=O)[C@H](C)NC(=O)[C@H](CC(C)C)NC(=O)[C@@H](NC(=O)[C@H](CCCCN)NC(=O)[C@H](CC(=O)O)NC(=O)[C@H](CCCCN)NC(=O)[C@H](Cc1ccccc1)NC(=O)[C@@H](NC(=O)[C@@H](N)CC(N)=O)C(C)C)[C@@H](C)O)C(=O)N[C@@H](CO)C(=O)N[C@@H](Cc1ccccc1)C(=O)N[C@@H](CC(N)=O)C(=O)N[C@@H](Cc1ccccc1)C(=O)N[C@@H](CO)C(=O)N[C@@H](CC(=O)O)C(=O)N[C@@H](CCCCN)C(=O)O [PepB1] (H-NVFKDKTLANKLSFNFSDK-OH) the “protection from cytotoxicity of TcdB1 over a range of toxin concentrations” value (TcdB1) was “did not inhibit the cytotoxicity” and the “protection from cytotoxicity of TcdB2 over a range of toxin concentrations” value (TcdB2) was “did not inhibit the cytotoxicity”.
In the case of CC[C@H](C)[C@H](NC(=O)[C@H](CCCCN)NC(=O)[C@H](CC(=O)O)NC(=O)[C@H](CO)NC(=O)[C@@H](NC(=O)[C@@H](NC(=O)[C@H](CC(N)=O)NC(=O)CNC(=O)[C@H](CCCCN)NC(=O)[C@H](Cc1ccccc1)NC(=O)[C@@H](NC(=O)[C@@H](N)CC(N)=O)C(C)C)[C@@H](C)O)[C@@H](C)CC)C(=O)N[C@@H](CO)C(=O)N[C@@H](Cc1ccccc1)C(=O)N[C@@H](CC(N)=O)C(=O)N[C@@H](Cc1ccccc1)C(=O)N[C@@H](CO)C(=O)N[C@@H](CC(=O)O)C(=O)N[C@@H](CCCCN)C(=O)O [PepB2], the “increase of the 50% toxic concentration (TC50) of TcdB2” value (TcdB2) is reported as 200 fold, the “protection from cytotoxicity of TcdB2 over a range of toxin concentrations” value (TcdB2) is reported as “protects CHO-K1 cells” and the “impact on TcdB cytotoxicity, PepB2 alone at 25 μM” value (TcdB [1]) is reported as “minimal impact”. The “inhibition of TcdB cytotoxicity, PepB2 combined with methyl cholate” value (TcdB [1]) was “strong inhibition”.
With N=C(N)NCCC[C@H](NC(=O)CN)C(=O)N[C@@H](CCCCN)C(=O)N[C@@H](CCCCN)C(=O)N[C@@H](CCCNC(=N)N)C(=O)N[C@@H](CCCNC(=N)N)C(=O)N[C@@H](CCC(N)=O)C(=O)N[C@@H](CCCNC(=N)N)C(=O)N[C@@H](CCCNC(=N)N)C(=O)N[C@@H](CCCNC(=N)N)C(=O)N1CCC[C@H]1C(=O)N1CCC[C@H]1C(=O)N[C@@H](CCC(N)=O)C(=O)O [TAT, reference compound] the “effect of known CPPs” value (TcdB [1]) was “did not appear to alter TcdB cytotoxicity”.
In the case of CC[C@H](C)[C@H](NC(=O)[C@H](CCCCN)NC(=O)[C@H](CCCCN)NC(=O)[C@H](C)NC(=O)[C@H](CC(C)C)NC(=O)[C@H](C)NC(=O)[C@H](C)NC(=O)[C@H](CC(C)C)NC(=O)[C@H](C)NC(=O)[C@H](CCCCN)NC(=O)[C@H](CC(C)C)NC(=O)[C@H](CC(N)=O)NC(=O)[C@@H](NC(=O)[C@H](CCCCN)NC(=O)CNC(=O)[C@H](CC(C)C)NC(=O)[C@H](CC(C)C)NC(=O)[C@H](Cc1ccc(O)cc1)NC(=O)CNC(=O)[C@H](C)N)[C@@H](C)CC)C(=O)N[C@@H](CC(C)C)C(=O)O [transportan 10, reference compound], the “effect of known CPPs” value (TcdB [1]) is reported as “did not appear to alter TcdB cytotoxicity”.
In the case of DKFSNSNKDKISFGNVTFI [Scramble 9], the “Anti-TcdB activity of scrambled PepB2 peptides” value (“Anti-TcdB activity” for short) (TcdB [1]) is reported as “found to have inhibitory activity”.
With FKDNNSIIFDVKGTNFSSK [Scramble 8] the “Anti-TcdB activity” value (TcdB [1]) was “found to have inhibitory activity”.
For KPPIKNLITGFTTIGDDKYYF [Peptide 9], the “inhibitory activity against TcdB1 (percent of viable cells)” value (TcdB1) was “weaker inhibitory activity” and the “inhibitory activity against TcdB2 (percent of viable cells)” value (TcdB2) was “weaker inhibitory activity”.
With NVFKGKTISDKISFNFSDK [PepB2-N6K] the “cell penetrating activities of mutant peptides” value (shortened to “cell penetrating activities”) (CHO-K1 cells) was “cell penetrating activities were reduced”.
With NVFKGNTLANKLSFNFSDK [PepB1-DK5-6GN] the “cell penetrating activities” value (CHO-K1 cells) was “cell penetrating activities were gained”.
In the case of NVFKSNTISDKISFNFSDK [PepB2-G5S], the “cell penetrating activities” value (CHO-K1 cells) is reported as “Cell penetrating activities also remained”, the “dextran delivery compared with PepB2” value (CHO-K1 cells) is reported as “this is not the case for dextran delivery” and the “transport of dsRNA into cells compared with PepB2” value (CHO-K1 cells) is reported as “more efficiently transports dsRNA into cells than PepB2”.
With SFNKMSIDFKDIKKLSLGYIMS [TcdA 1774-1795] the “TcdB inhibitory activity?” value (TcdB [1]) was “YES”, the “dose dependence of inhibition of TcdB” value (TcdB [1]) was “Dose-dependent inhibition” and the “inhibitory activity against TcdB toxin” value (TcdB [1]) was “found to have inhibitory activity against TcdB toxin”.
In the case of SNKNFSGIVFTNFDIDKSK [Scramble 12], the “Anti-TcdB activity” value (TcdB [1]) is reported as “found to have inhibitory activity”.
For methyl cholate [reference compound], the “impact on TcdB cytotoxicity, methyl cholate alone” value (TcdB [1]) is given as “minimal impact” and the “effect on the thermal stability of TcdB” value (TcdB [2]) is given as “increase the thermal stability of TcdB”.
